Assay [1] concerns pro-survival proteins (Bcl-2, Bcl-xL, Bcl-w, Mcl-1, A1). The assay is described as follows: Solution competition assay, statements spanning several pro-survival proteins. The format is binding, human and mouse. The settings on record: Bcl-2, Bcl-xL, Bcl-w, Mcl-1, A1. Here is the method:
(§1) The relative affinities of BH3 peptides for pro-survival Bcl-2 proteins were assessed by comparing their abilities to compete with immobilized ^wtBimBH3 peptide for binding to Bcl-2-like proteins (Wilson-Annan et al., Supra). A fixed sub-saturating amount (10 nM) of a pro-survival Bcl-2 protein was incubated with varying amounts of competitor BH3 peptide in HBS for >2 hr on ice. The mixtures were then injected over a sensor chip containing a channel bearing mouse ^wtBimBH3 and a control channel with mouse ^4EBimBH3 immobilized. The baseline response (control channel) was subtracted to obtain the absolute binding response. Taking the response for the pro-survival protein alone as the maximal response (100%), the relative residual binding (%) in the presence of increasing amounts of competitor peptides at a given injection time point (430 s) was then calculated. […] Theoretically, IC50=[A]/2+KD, where [A] is the analyte concentration.
(§2) Some of recombinant proteins (Bcl-2, Bcl-xL, A1) studied contain cysteine residues but the behavior of Bcl-2 or Bcl-xL was not affected by dithiothreitol (DTT).
(§3) To assess if other BH3 peptides bind pro-survival proteins similarly, we directly compared their binding affinities in solution using a competitive binding assay. In such assays, the quality and absolute quantity of target proteins are less critical than in direct binding, and solution binding precludes the steric hindrance encountered with some immobilized peptides. FIG. 1C illustrates the approach: pre-incubation of Bcl-xL in solution with increasing amounts of BikBH3 reduced its binding to ^wtBimBH3 (FIG. 1D). From the attenuation in binding, the IC50 (competitor peptide concentration that halves binding) of BikBH3 can be calculated (FIG. 1E). As the IC50 values reflect relative binding affinities (see Experimental Procedures), we used this assay to compare the binding affinities of eight BH3 peptides (Table 3) to the five pro-survival proteins. […] Their binding properties fell into several classes (FIG. 2B and FIG. 4). […] Contrary to the prevailing view, the pro-survival proteins also had unique patterns for BH3 binding: Bcl-xL behaved like Bcl-w, with Bcl-2 more distinct, whereas Mcl-1 and A1 formed a separate group (FIG. 2B).

In another assay the target is T1, Bcl-2 (Homo sapiens, UniProt P10415).
T1 construct: Human Bcl-2 (Acc. no. NP_000624; residues 1-217); made in house
The assay is described as follows: Solution competition assay (competition with immobilized wtBimBH3, biosensor). The format is binding. The note with it: Noxa mutant peptides. The procedure:
as §1, §2, §3

The next assay has as its target T2, Bcl-xL (Homo sapiens, UniProt Q07817).
T2 construct: Human Bcl-xL (Acc. no. NP_612815; residues 1-209); GST (N, cleaved yes); made in house
The assay is described as above. Format: binding. The note with it: for fold tighter than wild-type peptide: IC50 ratio to wild-type Noxa BH3; for increase in binding to Bcl-xL: versus wt NoxaBH3. Here is the method: as §1, §2, §3

A further assay concerns the target T3, Mcl-1 (Mus musculus, UniProt P97287).
T3 construct: mouse Mcl-1 (Acc. no. NP_031588; residues 152-308); GST (N, cleaved yes); made in house
Described as above. Format: binding. The note with it: versus wt NoxaBH3. Here is the method:
as §1, §2, §3

Assay [2] has as its system mouse embryonic fibroblasts (MEFs). As to the kind of experiment: Killing of MEFs after retroviral expression, viability 24 hours after infection. Format: cell-based. The settings on record: retroviral expression, 24 hours after infection. The procedure: FIG. 7 is a graphical representation showing that BH3-only proteins that bind selective targets have weak killing activity. (A) The affinities of BH3-only peptides for pro-survival proteins (tabulated in FIG. 3A) were inversely plotted to facilitate comparison of the patterns of BH3 binding. […] Immortalized 3T9 MEFs were infected with retroviruses expressing only GFP (control), or one of the BH3-only proteins and GFP. The viability of the infected (GFP^+ve) cells was determined by PI exclusion 24 hours after infection. The histograms represent means±1SD of at least 3 experiments. […] The filter was probed with a rat monoclonal anti-FLAG antibody. *Degradation product of Mcl-1. […] Viability of MEFs infected with retroviruses encoding the indicated proteins (GFP^+ve) was analyzed 24 hours after infection. The histograms represent means±1SD of at least 3 experiments. (E) Long-term survival of MEFs infected with BH3 expressing retroviruses. One hundred retrovirally-infected cells were plated and the absolute number of GFP^+ve colonies formed after 6 days scored. […] The data represent the average number of GFP^+ve colonies formed±1SD from at least 3 experiments. To assess the biological relevance of the selective binding, retroviral delivery was used to compare the ability of different BH3-only proteins to kill wild-type mouse embryonic fibroblasts (MEFs). To monitor expression of the introduced gene, a vector (pMIG) in which its expression is coupled via an internal ribosomal entry site (IRES) to that of green fluorescent protein (GFP) was used (Van Parijs et al., Immunity 11:281-288, 1999). The cells were efficiently infected (>90%) and the introduced BH3-only proteins were comparably expressed. Viability of the infected (GFP^+ve) cells was scored 24 hours after infection (FIGS. 7A, 7B) and in long-term colony assays (FIG. 7E). […] Thus, the neutralization of Mcl-1 by Noxa should be complemented by co-expression of a BadBH3 to neutralize Bcl-2 and Bcl-xL in MEFs (FIG. 8A).

As usually defined, the IC50 is the concentration at which inhibition is half-maximal.

T2 sequence (Q07817 1-209): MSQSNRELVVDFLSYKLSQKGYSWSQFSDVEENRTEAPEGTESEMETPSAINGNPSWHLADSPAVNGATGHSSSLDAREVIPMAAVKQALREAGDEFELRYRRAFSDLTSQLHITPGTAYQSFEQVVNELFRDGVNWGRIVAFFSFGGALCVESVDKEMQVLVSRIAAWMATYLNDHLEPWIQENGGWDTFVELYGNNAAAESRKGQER
T1 sequence (P10415 1-217): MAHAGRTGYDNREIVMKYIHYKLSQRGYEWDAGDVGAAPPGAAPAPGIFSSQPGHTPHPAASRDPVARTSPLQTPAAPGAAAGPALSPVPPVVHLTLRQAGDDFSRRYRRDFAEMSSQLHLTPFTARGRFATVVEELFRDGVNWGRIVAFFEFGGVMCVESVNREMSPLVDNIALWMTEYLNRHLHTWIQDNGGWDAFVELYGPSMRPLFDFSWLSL
T3 sequence (P97287 152-308): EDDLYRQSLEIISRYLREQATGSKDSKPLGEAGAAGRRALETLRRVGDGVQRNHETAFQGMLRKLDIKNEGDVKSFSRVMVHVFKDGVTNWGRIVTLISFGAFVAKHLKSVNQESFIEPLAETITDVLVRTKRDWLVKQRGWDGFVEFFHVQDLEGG

Regarding “BidBH3: human Bid BH3 peptide residues 81-104, DIIRNIARHLAQVGDSMDRSIPPG”, the “binding preference among pro-survival proteins” value in assay [1] is “preferred Bcl-xL, Bcl-w and A1 over Bcl-2 or Mcl-1”. With “H-PAELEVECATQLRRIGDELNFRQKLL-OH [Noxa (18-43) mt3]”, the “binding to Bcl-2” value on Bcl-2 is given as “remained weak”. The IC50 at Bcl-xL (competitor peptide vs immobilized wtBimBH3, read-out: IC50 for Bcl-xL) was determined as 110 nM. Besides, the “Mcl-1 binding” value at Mcl-1 is reported as “slightly improved”.

Consider “BikBH3: human Bik BH3 peptide residues 51-75, MEGSDALALRLACIGDEMDVSLRAP”, for which the “binding preference among pro-survival proteins” value in assay [1] was “preferred Bcl-xL, Bcl-w and A1 over Bcl-2 or Mcl-1”.

In the case of “BmfBH3: mouse Bmf BH3 peptide residues 128-151, HRAEVQIARKLQCIADQFHRLHTQ”, the “binding preference among pro-survival proteins” value in assay [1] was “showed similar preferences”.

Consider “H-PAELEVECATQLRRFGDELNFRQKLL-OH [Noxa (18-43) mt1]”, for which, at Bcl-2, the “binding to Bcl-2” value is given as “remained weak”. At Bcl-xL, the “fold tighter than wild-type peptide” value is “at least 17 fold” and the “increase in binding to Bcl-xL” value is recorded as “more than 20 fold”. As to “PumaBH3: human Puma BH3 peptide residues 130-155, EEQWAREIGAQLRRMADDLNAQYERR”, the “binding preference among pro-survival proteins” value in assay [1] is “comparable affinities for all the pro-survival proteins”. For “H-PAELEVECATQLRRIGDKLNFRQKLL-OH [Noxa (18-43) mt2]”, on Bcl-2, the “binding to Bcl-2” value is reported as “remained weak”. Also, on Bcl-xL, the “fold tighter than wild-type peptide” value is reported as “at least 90 fold” and the “increase in binding to Bcl-xL” value is listed as “more than 100 fold”. On to “Hrk: BH3-only protein Hrk expressed from retrovirus in MEFs”, for which the “killing of MEFs” value in assay [2] is reported as “much less potent killers”.

The values above are taken from patent US20080027145A1, “Therapeutic Molecules and Methods for Generating and/or Selecting Same” (priority 2004, published 2008).
